What was measured:
HUVEC [1] = assay: Modified Boyden chamber migration assay; assay type: cell-based, human
Description: Modified Boyden chamber assay was performed at 37° C. with a PET membrane (BD Bioscience, Franklin Lakes, N.J.) of 24 well for 24 hours. In the presence of 10 ng/ml of MMP3, 100 ng/ml of MMP3, 100 ng/ml of MMP3 and 0.13 μmol of NNGH, 50 ng/ml of MMP10, 50 ng/ml of MMP10 and 0.13 μmol of NNGH, 0.13 μmol of NNGH only, or 50 ng/ml of VEGF-A, 5×10^4 cells of HUVEC was cultured in the upper part of the chamber. As a control, a 0.02% bovine serum albumin (Sigma) was used. After incubations, HUVEC which migrated to the lower part of the membrane was detached by trypsin treatment and counted. […] The data represented the mean±SD of 4 samples.

[2] = system: Human umbilical vein endothelial cells (HUVECs); assay: Proliferative effect on endothelial cells (Tetra-color one, 450 nm absorbance); assay type: cell-based; details: HUVEC
Description: Human umbilical vein endothelial cells (HUVECs) (KURABO Industries, Osaka,) were seeded with 1,000 cells per 96 well. […] Ten μl of Tetra-color one (Seikagaku Kogyo, Co., Tokyo, Japan) was added to the 96 well plate, and cell numbers were measured using spectrophotometer at 450 nm absorbance at 2, 12, 24, 36, 48, 60 hours of culture. Wells without cells were served as negative controls.

[3] = system: amputated pulp of rat upper incisor; assay: Rat pulp amputated model; assay type: in vivo
Description: After pulpotomy of rat upper incisor, and wash with a saline, 50 ng of MMP3 adsorbed in spongel was applied to the amputated pulp. As a control, 50 ng of MMP3 and 30 nmol NNGH adsorbed in spongel was applied to the amputated pulp. The cavity was temporally sealed with a bonding agent and a photopolymerization type composite resin (Unifil low flow, GC, Tokyo). 24 hours, 72 hours, or 7 days after application, the paraffin sections of the 5 μm thickness were examined morphologically after HE staining or Masson Trichrome staining.
For quantitative analysis of newly formed blood vessels, each 5 frozen sections at 24 hours after treatment both with MMP3 and control PBS from 4 incisors each, total 40 sections were stained with Fluorescein Griffonia (Bandeiraea) Simplicifolia lectin (BS1-lectin) as described above. Three rectangles of a standardized size (0.1 mm^2) were drawn in the upper part of pulp tissue under the amputated site in every five sections from one sample. The lectin-positive area relative to total area (1.5 mm^2) was quantitatively analyzed in a standardized procedure using BZ-II Analyzer (Keyence) software on a Keyence BZ-9000 fluorescence microscope (Keyence, Tokyo, Japan). The data were presented as means±standard deviation at 4 determinations.
To evaluate effect of MMP3 on proliferation, immunohistochemical analysis of Proliferating Cell Nuclear Antigen (PCNA) was performed. Paraffin sections of 24 hours after treatment were deparaffinized and antigen was retrieved by antigen unmasking solution (Vector Laboratories, Burlingame, Calif.) according to the manufacturer's instructions. Endogenous peroxidase activity and nonspecific staining were blocked as described earlier. The sections were incubated with anti-PCNA antibody (Dako) at dilutions of 1:100 in antibody diluent (Dako) overnight at 4° C., and further incubated with a peroxidase-conjugated secondary antibody (ImmPRESS reagent; Vector Laboratories) for 30 min at room temperature. After development by DAB Liquid System (Dako), sections were counterstained with hematoxylin, and photographed on an Olympus Vanox-s microscope (Olympus, Tokyo, Japan). For quantitative analysis of proliferating cells, each 3 paraffin sections at 24 hours after treatment both with MMP3 and control PBS from 4 incisors each were used. Three rectangles of a standardized size (0.1 mm^2) were drawn in the upper part of pulp tissue under the amputated site in every 3 sections. The positive staining cells were counted and quantitatively analyzed. The data were presented as means±standard deviation at 4 determinations.
For quantitative analysis of matrix formation, each 5 paraffin sections at 72 hours after treatment both with MMP3 and control PBS from 4 incisors each, and 5 sections at 7 days after treatment with MMP3, NNGH, and control PBS from 4 incisors each were stained with Masson's trichrome staining. The positive area was quantitatively analyzed in the upper part of pulp tissue under the amputated site, 2 mm in depth from the amputated site, using BZ-II Analyzer software. The data were presented as means±standard deviation at 4 determinations.

HUVEC [4] = assay: Anti-apoptotic effect, staurosporine-induced apoptosis (Annexin V-FITC/Propidium Iodide flow cytometry); assay type: cell-based, human
Description: NNGH was added 30 minutes before adding MMP3. As a control, cells were cultured in EBM-2 without adding any in the presence of staurosporine. Four hours later, HUVEC was detached from the dish and stained with Annexin V-FITC (Roche) and Propidium Iodide (Sigma) in a cell suspension for 15 minutes and measured ratio of necrosis and apoptosis in flow cytometer JSAN (Bay Bioscience, Kobe).

[5] = system: pulp cells from rat upper incisor; assay: Induction of odontoblast differentiation using pulp cells (Dspp, enamelysin real-time RT-PCR); assay type: cell-based; details: MMP3 100 ng/ml, 14 days and 21 days
Description: Pulp cells were isolated from rat upper incisor by the trypsin and collagenase digestion method and cultured in DMEM (Sigma, St. Louis, Mo., USA) including L-ascorbic acid phosphoric acid magnesium salt (Wako pure medicine) and 10% of […] fetal bovine serum (SAFC Biosciences, Lenexa, Kans., USA) and 100 unit/ml penicillin G, 100 μg/ml streptomycin (Invitrogen, Carlsbad, Calif., USA). MMP3 was added 100 ng/ml of MMP3, or 0.13 μmol of NNGH and 50 ng/ml human recombinant BMP2 to the cells at second passage of culture after confluence. Total RNA was extracted 14 days or 21 days after and analyzed expression of odontoblastic differentiation markers, dentin sialophosphoprotein (Dspp) and enamelysin by Real-time RT-PCR (table 1). […] When MMP3 was added, the differentiation inductive effect into odontoblasts in particular was […] in comparison without adding MMP3 of the control 14 days and 21 days after treatment.

[6] = system: amputated pulp of dog upper premolar teeth; assay: Dog pulpotomy model; assay type: in vivo; details: 100 ng MMP3 in spongel, 14 days
Description: After pulpotomy of dog upper premolar teeth, the amputated pulp was washed with 5% sodium hypochlorite solution and 3% hydrogen peroxide and further was washed with a saline, 100 ng of MMP3 absorbed in spongel was applied on the amputated pulp. Furthermore, the cavity was provisionally filled with phosphate cement and sealed with a chemical polymerization composite resin after application of a bonding agent. The tooth was extracted 14 days after treatment and fixed with 4% paraformaldehyde fixation at 4° C. overnight and decalcified at 4° C. in 10% formic acid for one week. Reparative dentin formation was observed after HE staining under light microscopy in the longitudinal paraffin 5 μm-section.

[7] = system: inflamed pulp (pulpitis) of dog upper premolar tooth; assay: Dog pulpitis model; assay type: in vivo
Description: The inflammation of the pulp was produced be open with cotton for 24 hours after pulpotomy in the dog upper premolar tooth. Subsequently 100 ng of MMP3 absorbed in spongel was applied to the amputated pulp after washing with 5% sodium hypochlorite solution and 3% hydrogen peroxide and further with a saline. Furthermore, the cavity was filled with phosphate cement and temporally sealed with a chemical polymerization composite resin after application with a bonding agent. The tooth was extracted 14 days later, immersed at 4° C. overnight and followed by fixation and decalcification at 4° C. in 10% formic acid for one week. The reparative dentin formation was observed by an light microscope after H.E. staining at 5 μm-paraffin sections. FIG. 11A is a figure of micrograph showing healing of pulpitis state 14 days after MMP3 application in the upper premolar tooth of the dog in which pulpitis had been produced. FIG. 11B is a figure of micrograph of the high power to show healing of pulpitis state 14 days after MMP3 application in the upper premolar tooth of the dog in which pulpitis had been produced. FIG. 11C is a figure of micrograph 14 days in case of the PBS control of the upper premolar tooth of the dog in which pulpitis produces had been produced. FIG. 11D is a figure of micrograph of the high power 14 days in case of the PBS control of the upper premolar tooth of the dog n which pulpitis had been produced.

COc1ccc(S(=O)(=O)N(CC(=O)NO)CC(C)C)cc1 [NNGH, N-Isobutyl-N-(4-methoxyphenylsulfonyl)-glycylhydroxamic acid, reference compound]
migration effect of MMP3 when NNGH added at the same time (HUVEC [1]; HUVEC, 100 ng/ml MMP3 and 0.13 μmol NNGH): inhibited | proliferative effect of MMP3 when NNGH added at the same time ([2]; MMP3 50 ng/mL with NNGH 0.13 μM): restrained | proliferative effect in comparison with the no addition group of MMP3 ([2]; NNGH added): almost the same | dentin matrix formation in comparison with PBS control group ([3]; 7 days after pulpotomy, P<0.01): Significant decrease | anti-apoptotic effect of MMP3 when NNGH added at the same time (HUVEC [4]; 50 ng/ml MMP3 with 0.13 μmol NNGH, staurosporine 100 nM): inhibited

CN[C@@H]1C[C@H]2O[C@@](C)([C@@H]1OC)n1c3ccccc3c3c4c(c5c6ccccc6n2c5c31)C(=O)NC4 [Staurosporine, reference compound]
apoptosis, % of cells (HUVEC [4]; Staurosporine 100 nM alone, four hours): 52%

MMP3: human MMP3 (Chemicon); protein of the MMP family, referred to as stromelysin 1; active ingredient of the medicament
differentiation inductive effect into odontoblasts (Dspp, enamelysin mRNA) in comparison with control without MMP3 [5]: not seen | cell proliferation in the vicinity of the amputated surface [6]: a large number | reparative dentin formation in the upper part of the amputated pulp [6]: a large quantity | migration promotion effect on HUVEC in comparison with control (HUVEC [1]; 10 ng/ml, 24 hours): significant difference was not detected | migration of HUVEC, increase compared with the control (HUVEC [1]; 100 ng/ml, 24 hours, control 0.02% bovine serum albumin): approximately 3.5 times | increase of proliferation, 48-hour application in comparison with 2-hour application ([2]; MMP3 50 ng/mL): approximately 10 times | PCNA positively staining cells ([3]; 50 ng MMP3, 24 hours after pulpotomy, pulp under the amputated site): 98.5 cells/mm^2 | increase of the vascularization density versus PBS group ([3]; 50 ng MMP3, 24 hours, BS1-lectin positive area): double | newly formed blood vessels stained with BS1-lectin under the amputated surface, in comparison with MMP3 free group ([3]; 50 ng MMP3 in spongel, 24 hours after pulpotomy): more detected | PCNA positively staining cells, increase versus non applied group ([3]; 24 hours after pulpotomy): 2.7 times | osteodentin formation around newly differentiated odontoblasts/osteodentinoblasts (Masson's Trichrome staining) ([3]; 72 hours after application): observed | DSPP mRNA expression in newly differentiated odontoblasts/osteodentinoblasts (in situ hybridization) ([3]; 72 hours after pulpotomy): seen | amount of osteodentin in comparison with non applied MMP3 (HE staining) ([3]; 72 hours after pulpotomy): larger amount | inflammatory cell infiltration (HE staining) ([3]; 72 hours after pulpotomy): not observed | dentin matrix formation under the amputated site, increase in comparison with PBS control group ([3]; 72 hours after pulpotomy, P<0.01): 3.8 times | proliferation under the amputated pulp ([7]; 100 ng MMP3, 14 days): seen | reparative dentin formation ([7]; 100 ng MMP3, 14 days): sometimes observed | vascularization ([7]; 100 ng MMP3, 14 days): enhanced | inflammation state of the pulp ([7]; 100 ng MMP3 in spongel, 14 days): very slight | apoptotic cells (HUVEC [4]; MMP3 50 ng/ml added at the same time of Staurosporine 100 nM, four hours): 20%

MMP10/Stromelysin-2: MMP-10 (R&D Systems); an isomer of MMP3
migration effect (HUVEC [1]; HUVEC, 50 ng/ml of MMP10): did not have | proliferative effect ([2]; MMP-10 50 ng/mL): did not have | anti-apoptotic effect (HUVEC [4]; 50 ng/ml of MMP10, staurosporine 100 nM): did not have

Source: patent publication US9597360B2, “Method of treatment for pulpitis and/or enhancement for dentinogenesis” (National Center for Geriatrics and Gerontology, priority 2008, dated 2017)
